Data set [1] has as its target T1, Transient receptor potential cation channel subfamily V member 1 (Homo sapiens, UniProt Q8NER1). Description: Agonist activity at TRPV1 (unknown origin) expressed in human SH-SY5Y cells assessed as increase in calcium influx after 25 mins by Fluo-4 NW dye-based fluorescence assay. The class given is cell-based.
Data set [2] can be described thus: Drug metabolism in human HaCaT cells assessed as residual substrate levels at 25 uM up to 240 mins by HPLC-UV analysis. The class given is ADME, cell-based. Particulars: read-out: Stability.
Data set [3] can be described thus: Drug metabolism in human plasma assessed as residual substrate levels at 100 uM up to 20 mins by HPLC-UV analysis. The settings on record: read-out: Stability. The class given is ADME, cell-free.
A short description of data set [4]: Drug metabolism in human liver S9 fraction assessed as residual substrate levels at 50 uM up to 60 mins by HPLC-UV analysis. The class given is ADME, subcellular. Particulars: read-out: Stability.
Data set [5] can be described thus: Drug metabolism in human liver microsomes assessed as glucuronide metabolite formation at 50 uM in presence of UDPGA after 60 mins by LC-ESI-MS analysis. The class given is ADME, microsome. The settings on record: 1 h.
The nature of data set [6]: Drug metabolism in human liver microsomes assessed as sulfate conjugate formation at 50 uM in presence of UDPGA after 60 mins by LC-ESI-MS analysis. Format: ADME, microsome. Particulars: 1 h.
Data set [7] can be described thus: Drug metabolism in human liver cytosol assessed as glucuronide metabolite formation at 50 uM in presence of UDPGA after 60 mins by LC-ESI-MS analysis. The class given is ADME, subcellular. Particulars: 1 h.
A short description of data set [8]: Drug metabolism in human liver cytosol assessed as sulfate conjugate formation at 50 uM in presence of UDPGA after 60 mins by LC-ESI-MS analysis. Format: ADME, subcellular. The settings on record: 1 h.
For data set [9], the target named is T1, Transient receptor potential cation channel subfamily V member 1. Description: Agonist activity at TRPV1 (unknown origin) expressed in human SH-SY5Y cells assessed as increase in calcium influx at 1 uM after 25 mins by Fluo-4 NW dye-based fluorescence assay relative to capsaicin.
Data set [10] has the same target. Description: Antagonist activity at TRPV1 (unknown origin) expressed in human SH-SY5Y cells assessed as inhibition of capsaicin-induced calcium increase after 25 mins by Fluo-4 NW dye-based fluorescence assay. Format: cell-based.
The target is the same in data set [11]. Description: Antagonist activity at TRPV1 (unknown origin) expressed in human SH-SY5Y cells assessed as inhibition of capsaicin-induced calcium influx at 1 uM after 25 mins by Fluo-4 NW dye-based fluorescence assay relative to capsaicin. Format: cell-based.
A short description of data set [12]: Drug metabolism in human keratinocytes assessed as residual substrate levels at 50 uM up to 120 mins by HPLC-UV analysis. Format: ADME, cell-based, Keratinocyte. Particulars: read-out: Stability.
Data set [13] is described as follows: Drug metabolism in human fibroblast cells assessed as residual substrate levels at 50 uM up to 120 mins by HPLC-UV analysis. Format: ADME, cell-based. The settings on record: read-out: Stability.
Another data set has as its target T2, Liver carboxylesterase 1 (Homo sapiens, UniProt P23141).
T2 sequence (P23141 whole entry): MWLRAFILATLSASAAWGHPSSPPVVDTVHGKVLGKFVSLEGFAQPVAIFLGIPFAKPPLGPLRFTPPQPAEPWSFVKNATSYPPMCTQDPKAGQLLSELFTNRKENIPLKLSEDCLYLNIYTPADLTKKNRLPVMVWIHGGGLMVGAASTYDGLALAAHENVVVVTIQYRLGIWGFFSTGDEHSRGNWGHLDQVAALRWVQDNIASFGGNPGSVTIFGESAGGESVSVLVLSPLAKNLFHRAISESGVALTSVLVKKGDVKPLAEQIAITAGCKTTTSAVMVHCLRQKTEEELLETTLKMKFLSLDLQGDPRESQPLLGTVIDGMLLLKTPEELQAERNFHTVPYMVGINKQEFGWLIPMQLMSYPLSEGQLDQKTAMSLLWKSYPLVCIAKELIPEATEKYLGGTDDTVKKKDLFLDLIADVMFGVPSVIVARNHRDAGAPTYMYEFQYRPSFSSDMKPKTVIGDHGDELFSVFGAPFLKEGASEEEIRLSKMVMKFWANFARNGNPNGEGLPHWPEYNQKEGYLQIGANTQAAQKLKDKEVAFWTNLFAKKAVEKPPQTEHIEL
Description: Drug metabolism assessed as recombinant human CE1-mediated compound hydrolysis by measuring rate constant at 50 uM up to 60 mins by LC-UV analysis. Format: ADME. Particulars: 1 h.

The next data set addresses T3, Cocaine esterase (Homo sapiens, UniProt O00748).
T3 sequence (O00748 whole entry): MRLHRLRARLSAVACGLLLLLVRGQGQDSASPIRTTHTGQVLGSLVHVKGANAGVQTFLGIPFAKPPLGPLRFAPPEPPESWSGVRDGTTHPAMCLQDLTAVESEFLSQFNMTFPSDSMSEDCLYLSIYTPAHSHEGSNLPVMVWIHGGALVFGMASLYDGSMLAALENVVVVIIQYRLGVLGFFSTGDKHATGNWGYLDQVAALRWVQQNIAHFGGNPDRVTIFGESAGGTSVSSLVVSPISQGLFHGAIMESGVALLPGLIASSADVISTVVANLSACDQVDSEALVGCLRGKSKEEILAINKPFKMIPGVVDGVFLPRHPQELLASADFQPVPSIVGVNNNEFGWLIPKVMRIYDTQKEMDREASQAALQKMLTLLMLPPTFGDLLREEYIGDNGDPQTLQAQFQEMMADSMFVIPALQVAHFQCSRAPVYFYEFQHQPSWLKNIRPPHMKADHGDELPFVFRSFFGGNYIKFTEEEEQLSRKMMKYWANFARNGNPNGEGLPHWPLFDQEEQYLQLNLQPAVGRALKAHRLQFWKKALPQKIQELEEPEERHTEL
Description: Drug metabolism assessed as recombinant human CE2-mediated compound hydrolysis by measuring rate constant at 50 uM up to 60 mins by LC-UV analysis. Particulars: 1 h. The class given is ADME.

In data set [14] the target is T4, Liver carboxylesterase 1 (CE1) (Homo sapiens, UniProt P23141).
T4 sequence (P23141 whole entry): T2 sequence (P23141 whole entry)
Description: Drug metabolism assessed as recombinant human CE1-mediated compound hydrolysis by measuring compound half life at 50 uM up to 60 mins by LC-UV analysis. Format: ADME.

Another data set concerns the target T5, Cocaine esterase (CE2) (Homo sapiens, UniProt O00748).
T5 sequence (O00748 whole entry): T3 sequence (O00748 whole entry)
Description: Drug metabolism assessed as recombinant human CE2-mediated compound hydrolysis by measuring compound half life at 50 uM up to 60 mins by LC-UV analysis. The class given is ADME.

In data set [15] the target is T4, Liver carboxylesterase 1 (CE1). Description: Drug metabolism assessed as recombinant human CE1-mediated compound hydrolysis by measuring compound intrinsic clearance at 50 uM up to 60 mins by LC-UV analysis. The class given is ADME.

T1 sequence (Q8NER1 whole entry): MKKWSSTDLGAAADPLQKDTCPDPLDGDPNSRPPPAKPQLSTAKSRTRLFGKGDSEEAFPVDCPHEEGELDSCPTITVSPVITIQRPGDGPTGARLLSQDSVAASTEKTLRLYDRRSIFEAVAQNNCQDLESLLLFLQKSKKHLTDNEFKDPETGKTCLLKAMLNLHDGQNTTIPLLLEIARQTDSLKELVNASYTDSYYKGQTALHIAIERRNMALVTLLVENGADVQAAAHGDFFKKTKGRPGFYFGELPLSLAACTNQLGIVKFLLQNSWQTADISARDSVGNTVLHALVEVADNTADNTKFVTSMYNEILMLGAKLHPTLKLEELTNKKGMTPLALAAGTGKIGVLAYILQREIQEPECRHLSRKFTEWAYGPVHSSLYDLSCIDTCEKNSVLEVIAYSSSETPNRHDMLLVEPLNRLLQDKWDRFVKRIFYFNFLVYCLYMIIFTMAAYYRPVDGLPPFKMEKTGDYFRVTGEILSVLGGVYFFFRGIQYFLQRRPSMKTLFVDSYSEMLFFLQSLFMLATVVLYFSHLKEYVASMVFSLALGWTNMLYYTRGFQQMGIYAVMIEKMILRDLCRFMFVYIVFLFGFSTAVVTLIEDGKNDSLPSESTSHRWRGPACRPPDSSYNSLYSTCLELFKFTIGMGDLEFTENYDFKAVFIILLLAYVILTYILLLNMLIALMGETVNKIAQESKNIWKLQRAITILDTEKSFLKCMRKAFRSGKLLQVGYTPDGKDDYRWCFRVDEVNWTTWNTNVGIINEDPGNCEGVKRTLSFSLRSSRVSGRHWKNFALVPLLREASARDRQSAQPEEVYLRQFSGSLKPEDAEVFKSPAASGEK

Regarding `CCCCCCCC/C=C\CCCCCCCC(=O)OCC(=O)NCc1ccc(O)c(OC)c1`, the EC50 in data set [1] came to 320 nM. For the same compound, the remaining at 4 h, 25 µM in [2] was found to be 92.6%. In addition, the remaining at 20 min, 100 µM in data set [3] turned out to be 92.5%. Also, the remaining at 1 h, 50 µM in [4] stood at 53.7%. In addition, the Drug metabolism entry in data set [5], in data set [6], in data set [7] and in data set [8] was “Metabolite_Notdetected” each time. Also, the Activity in data set [9] came to 60.7%.
On to `CCCCCCCC(=O)OCC(=O)NCc1cc(OC)c(O)cc1I`, for which, in data set [10], the IC50 amounted to 1340 nM. Further, the inhibition in [11] was determined as 50.5%. In data set [2], the remaining at 4 h, 25 µM was 84.5%. Besides, the remaining at 20 min, 100 µM in data set [3] worked out at 32.1%. In addition, the remaining at 1 h, 50 µM in data set [4] stood at 2.9%. In addition, the Drug metabolism entry in data set [5], in data set [6], in data set [7] and in data set [8] was “Metabolite_Notdetected” each time.
For `COc1cc(CNC(=O)COC(=O)/C=C(\C)CCC=C(C)C)ccc1O`, the EC50 in data set [1] stood at 140 nM. Also, in data set [2], the remaining at 4 h, 25 µM stood at 98.9%. The remaining at 20 min, 100 µM in [3] was found to be 98%. Besides, the remaining at 1 h, 50 µM in data set [4] was 63.2%. In addition, the Drug metabolism entry in data set [5], in [6], in [7] and in data set [8] was “Metabolite_Notdetected” throughout. In addition, the Activity in data set [9] came to 59.8%.
With `CC(C)=CCC/C(C)=C/CC/C(C)=C/CC/C=C(\C)CC/C=C(\C)CCC(=O)OCC(=O)NCc1ccc(O)c(O)c1`, in data set [1], the EC50 came to 40 nM. In data set [2], the remaining at 4 h, 25 µM was found to be 97.9%. Further, in data set [3], the remaining at 20 min, 100 µM came to 105%. For the same compound, the remaining at 1 h, 50 µM in data set [4] stood at 70.9%. Further, the remaining at 2 h, 50 µM in data set [12] was 70.2%; in data set [13] it was 59.6%. Moreover, the K at Liver carboxylesterase 1 is 0.0608 min⁻¹; at Cocaine esterase, 0.0497 min⁻¹. The values for the half-life at 50 µM (in data set [14]; on Cocaine esterase (CE2)) were 11.4 min and 14 min, respectively. Also, the microsomal CLint at 50 µM in data set [15] worked out at 56 µL/min/mg. For the same compound, the Drug metabolism entry in [5], in data set [6], in [7] and in data set [8] was “Metabolite_Notdetected” in each case. Moreover, in data set [9], the Activity was 78.4%.
`CCCCC/C=C\C/C=C\C/C=C\C/C=C\CCCC(=O)OCC(=O)NCc1ccc(O)c(OC)c1`: the EC50 in [1] came out at 450 nM. Further, the remaining at 4 h, 25 µM in data set [2] turned out to be 96.9%. Also, the remaining at 20 min, 100 µM in [3] came to 98.8%. Moreover, in data set [4], the remaining at 1 h, 50 µM came out at 26%. Also, the Drug metabolism entry in data set [5], in data set [6], in data set [7] and in [8] was “Metabolite_Notdetected” each time. For the same compound, in data set [9], the Activity was found to be 54.7%.
As for `CCCCCCCCCCCCCCC(=O)OCC(=O)NCc1ccc(O)c(OC)c1`, the EC50 in data set [1] turned out to be 330 nM. For the same compound, the remaining at 4 h, 25 µM in data set [2] came to 83.8%. In addition, the remaining at 20 min, 100 µM in data set [3] was 95.7%. Further, in data set [4], the remaining at 1 h, 50 µM was found to be 21.1%. Moreover, the Drug metabolism result in [5], in [6], in data set [7] and in data set [8] was “Metabolite_Notdetected” in each case. Further, in [9], the Activity came out at 58.2%.
On to `COc1cc(CNC(=O)COC(=O)CC/C(C)=C/CC/C(C)=C/CC/C=C(\C)CC/C=C(\C)CCC=C(C)C)ccc1O`, for which, in data set [1], the EC50 was found to be 90 nM. The remaining at 4 h, 25 µM in [2] was 98.2%. In data set [3], the remaining at 20 min, 100 µM is 78.1%. Further, the remaining at 1 h, 50 µM in [4] came to 71.8%. In addition, the Drug metabolism entry in data set [5], in data set [6], in [7] and in data set [8] was “Metabolite_Notdetected” in each case. Besides, the Activity in [9] came out at 71.8%.
Turning to `CC(C)=CCC/C(C)=C/C(=O)OCC(=O)NCc1ccc(O)c(O)c1`, the EC50 in data set [1] was 410 nM. The remaining at 4 h, 25 µM in data set [2] was 104%. In addition, the remaining at 20 min, 100 µM in data set [3] came out at 101%. Further, in [4], the remaining at 1 h, 50 µM came out at 2.2%. The Drug metabolism result in data set [5], in data set [6], in data set [7] and in data set [8] was “Metabolite_Notdetected” throughout. Also, the Activity in [9] stood at 54.6%.
On to `COc1cc(CNC(=O)COC(=O)/C=C(\C)CCC=C(C)C)c(I)cc1O`, for which the IC50 in data set [10] was 90 nM. Besides, in data set [11], the inhibition was determined as 90.1%. For the same compound, the remaining at 4 h, 25 µM in [2] came to 99.5%. In data set [3], the remaining at 20 min, 100 µM came to 100%. Moreover, the remaining at 1 h, 50 µM in data set [4] came out at 50.1%. Besides, the remaining at 2 h, 50 µM in [12] amounted to 104%; in data set [13], 100%. In addition, the K came to 0.0129 min⁻¹ at Liver carboxylesterase 1 and 0.0877 min⁻¹ at Cocaine esterase. In addition, the half-life at 50 µM in data set [14] was found to be 53.8 min; on Cocaine esterase (CE2), 7.9 min. The microsomal CLint at 50 µM in data set [15] came out at 13 µL/min/mg. Also, the Drug metabolism entry in data set [5], in data set [6], in [7] and in data set [8] was “Metabolite_Notdetected” in each case.
In the case of `COc1cc(CNC(=O)CCCC/C=C/C(C)C)ccc1O` [CAPSAICIN], the remaining at 4 h, 25 µM in [2] turned out to be 99.3%. In addition, the remaining at 20 min, 100 µM in data set [3] was found to be 99%. Also, in [4], the remaining at 1 h, 50 µM stood at 96%. For the same compound, the remaining at 2 h, 50 µM in data set [12] and in data set [13] was 100% throughout.

The EC50 is the concentration at which the effect is half-maximal. As usually defined, the IC50 is the point on the concentration scale where inhibition reaches its midpoint. For orientation: inhibition means the drop in the measured response relative to a control, in per cent. A word on the half-life: it is the time in which the quantity being followed falls by half. As a reminder, the microsomal CLint is a measure of how fast metabolising enzymes remove a compound, apart from limits set by blood flow.

These data come from ChEMBL document CHEMBL4219255, “Targeting Transient Receptor Potential Vanilloid 1 (TRPV1) Channel Softly: The Discovery of Passerini Adducts as a Topical Treatment for Inflammatory Skin Disorders” (J Med Chem, 2018).
